Target: T1, Glutamate racemase (Limosilactobacillus fermentum, UniProt Q03469)
T1 sequence (Q03469 whole entry): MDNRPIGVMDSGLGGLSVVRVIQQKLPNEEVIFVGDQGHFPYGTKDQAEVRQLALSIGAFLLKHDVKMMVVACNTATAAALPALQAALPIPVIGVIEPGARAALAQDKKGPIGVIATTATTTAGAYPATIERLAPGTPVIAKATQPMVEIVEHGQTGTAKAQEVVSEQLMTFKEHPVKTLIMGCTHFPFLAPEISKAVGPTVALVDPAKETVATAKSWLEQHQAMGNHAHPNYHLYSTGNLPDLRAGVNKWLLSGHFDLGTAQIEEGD
Test: Binding affinity against Glutamate Racemase

In the case of N[C@H](C[C@H](Cc1ccc2ccccc2c1)C(=O)O)C(=O)O [2-Amino-4-naphthalen-2-ylmethyl-pentanedioic acid], the Ki is reported as 16 nM.
